Source: patent US20240270762A1, “PENICILLIN-BINDING PROTEIN INHIBITORS” (priority 2021, published 2024)
≈ marks a conversion by molar mass, not a printed value.

Legend:
K. pneumoniae UMM = test: microbe, parasite or virus in culture; format: cell-based; conditions: Klebsiella pneumoniae, read-out: MIC K. pneumoniae UMM
N. gonorrhoeae WHO K = test: Liquid broth MIC in Fastidious broth; conditions: Neisseria gonorrhoeae, read-out: Minimum Inhibitory Concentration (MIC), N. gonorrhoeae WHO K
P. aeruginosa ATCC 35151 = test: microbe, parasite or virus in culture; format: cell-based; conditions: Pseudomonas aeruginosa, ATCC35151, read-out: MIC P. aeruginosa ATCC 35151
A. baumannii ATCC 19606 = test: microbe, parasite or virus in culture; format: cell-based; conditions: Acinetobacter baumannii, ATCC19606, read-out: MIC, A. baumannii ATCC 19606
[1] = biological target: T1, PBP3 from Escherichia coli (K-12) (Escherichia coli, UniProt P0AD68); test: Bocillin-FL fluorescence polarization competition binding, E. coli PBP3
T1 construct: made in house
In short: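 Purified PBP was preincubated with inhibitor (E. coli PBP3 1.5 μM, 30 min; P. aeruginosa PBP3 0.75 μM, A. baumannii PBP3 0.2 μM and PBP1a 1 μM, 15 min), then Bocillin-FL (0.1 μM; 0.05 μM for PBP1a) added and FP read up to 60 min. EC50 = 50% loss of bound probe.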

[2] = system: N. gonorrhoeae ATCC 49226; test: Liquid broth MIC in Fastidious broth; conditions: Neisseria gonorrhoeae, ATCC49226, read-out: Minimum Inhibitory Concentration (MIC), N. gonorrhoeae ATCC 49226
N. gonorrhoeae WHO Z = test: Liquid broth MIC in Fastidious broth; conditions: Neisseria gonorrhoeae, read-out: Minimum Inhibitory Concentration (MIC), N. gonorrhoeae WHO Z
N. gonorrhoeae WHO M = test: Liquid broth MIC in Fastidious broth; conditions: Neisseria gonorrhoeae, read-out: Minimum Inhibitory Concentration (MIC), N. gonorrhoeae WHO M
N. gonorrhoeae WHO Q = test: Liquid broth MIC in Fastidious broth; conditions: Neisseria gonorrhoeae, read-out: Minimum Inhibitory Concentration (MIC), N. gonorrhoeae WHO Q
N. gonorrhoeae WHO L = test: Liquid broth MIC in Fastidious broth; conditions: Neisseria gonorrhoeae, read-out: Minimum Inhibitory Concentration (MIC), N. gonorrhoeae WHO L
Experimental: Liquid broth-based assays were used for antibacterial testing of PBP inhibitors in Neisseria gonorrhoeae. Briefly, cryo-preserved bacterial cultures of clinical strains were streaked for isolation on Chocolate Agar (72 g/L (2×) GC Agar Base (BD #228950) and 2% (2×) Hemoglobin was autoclaved at 121° C. for 20 minutes to sterilize. Once cooled to ˜50° C. the 2×GC Agar Base and 2× Hemoglobin solutions are combined and 1% IsoVitaleX Enrichment (BD #211876) was added to the solution). Strains were incubated at 36° C. and 5% CO2 to allow growth of colonies, 24 hours before inoculum preparation. 2-fold serial dilutions of test compounds were conducted in a 96 well plate with a final volume of 75 μL per well at 2-fold the final desired concentration in Fastidious broth (Remel #R07664). For preparation of assay inoculum, a direct suspension was prepared by aseptically swabbing 10-15 colonies from agar plates into culture tubes containing 2 mL of fresh sterile saline. After the dilution plates were set up, direct suspensions were then diluted in a cuvette containing sterile saline and the optical density was measured at 600 nm. Inocula were diluted such that 75 μL of this culture in Fastidious broth results in a starting bacterial concentration of 5×10^5 CFU/mL when added to the dilution plates. The plates were incubated for ˜24 hours at 36° C. and 5% CO2.

E. coli AG100A = test: Broth microdilution MIC in CAMHB; format: cell-based; conditions: Escherichia coli, read-out: MIC E. coli AG100A
N. gonorrhoeae CDC-0197 = test: Liquid broth MIC in Fastidious broth; conditions: Neisseria gonorrhoeae, CDC0197, read-out: Minimum Inhibitory Concentration (MIC), N. gonorrhoeae CDC-0197
N. gonorrhoeae MS11 = test: Liquid broth MIC in Fastidious broth; conditions: Neisseria gonorrhoeae, MS11, read-out: Minimum Inhibitory Concentration (MIC), N. gonorrhoeae MS11
E. coli ATCC 25922 = test: microbe, parasite or virus in culture; format: cell-based; conditions: Escherichia coli, ATCC25922, read-out: MIC E. coli 25922
K. pneumoniae SI-117 = test: microbe, parasite or virus in culture; format: cell-based; conditions: Klebsiella pneumoniae, SI117, read-out: MIC K. pneumoniae SI-117
E. coli D22 = test: microbe, parasite or virus in culture; format: cell-based; conditions: Escherichia coli, D22, read-out: MIC E. coli D22

T1 sequence (P0AD68 1-577): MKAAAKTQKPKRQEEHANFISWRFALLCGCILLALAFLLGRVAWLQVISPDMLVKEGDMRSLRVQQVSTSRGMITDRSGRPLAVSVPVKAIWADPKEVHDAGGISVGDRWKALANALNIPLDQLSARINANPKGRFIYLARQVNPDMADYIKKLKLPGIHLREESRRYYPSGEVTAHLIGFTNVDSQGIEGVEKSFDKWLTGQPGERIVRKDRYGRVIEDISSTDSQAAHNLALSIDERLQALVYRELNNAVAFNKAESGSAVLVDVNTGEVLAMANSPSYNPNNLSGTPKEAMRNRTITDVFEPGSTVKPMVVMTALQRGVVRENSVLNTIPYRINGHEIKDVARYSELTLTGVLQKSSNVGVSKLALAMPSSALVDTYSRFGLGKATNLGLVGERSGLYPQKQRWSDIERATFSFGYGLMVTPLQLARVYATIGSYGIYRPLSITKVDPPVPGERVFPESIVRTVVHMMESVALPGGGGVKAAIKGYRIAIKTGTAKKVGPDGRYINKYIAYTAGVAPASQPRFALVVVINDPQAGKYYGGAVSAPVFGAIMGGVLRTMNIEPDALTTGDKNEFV

Compound: CS(=O)(=O)N1CCN(C(=O)N[C@@H](C(=O)N[C@H]2Cc3cccc(C(=O)O)c3OB2O)c2ccc(P(=O)(O)O)c(F)c2F)C1=O (single isomer, unassigned) [Example 13]
- MIC (K. pneumoniae UMM): > 128 µg/mL
- MIC (N. gonorrhoeae WHO K): < 1 µg/mL
- MIC (P. aeruginosa ATCC 35151): 2 to 4 µg/mL (≈ 3.09 to 6.19 µM)
- MIC (A. baumannii ATCC 19606): 32 to 64 µg/mL (≈ 49.5 to 99 µM)
- EC50 [1]: < 10 µM
- MIC [2]: < 1 µg/mL
- MIC (N. gonorrhoeae WHO Z): < 1 µg/mL
- MIC (N. gonorrhoeae WHO M): < 1 µg/mL
- MIC (N. gonorrhoeae WHO Q): < 1 µg/mL
- MIC (N. gonorrhoeae WHO L): < 1 µg/mL
- MIC (E. coli AG100A): 8 to 16 µg/mL (≈ 12.4 to 24.8 µM)
- MIC (N. gonorrhoeae CDC-0197): < 1 µg/mL
- MIC (N. gonorrhoeae MS11): < 1 µg/mL
- MIC (E. coli ATCC 25922): > 128 µg/mL
- MIC (K. pneumoniae SI-117): > 128 µg/mL
- MIC (E. coli D22): 8 to 16 µg/mL (≈ 12.4 to 24.8 µM)

Compound: O=C(O)c1cccc2c1OB(O)[C@@H](NC(=O)[C@@H](NC(=O)c1cccn(C(F)F)c1=O)c1ccc(P(=O)(O)O)cc1)C2 (single isomer, unassigned) [Example 190]
- MIC (K. pneumoniae UMM): > 128 µg/mL
- MIC (N. gonorrhoeae WHO K): 16 to 32 µg/mL (≈ 27.1 to 54.1 µM)
- MIC (P. aeruginosa ATCC 35151): 2 to 4 µg/mL (≈ 3.38 to 6.77 µM)
- MIC (A. baumannii ATCC 19606): > 128 µg/mL
- EC50 [1]: 10 to 50 µM
- MIC [2]: 4 to 8 µg/mL (≈ 6.77 to 13.5 µM)
- MIC (N. gonorrhoeae WHO Z): 4 to 8 µg/mL (≈ 6.77 to 13.5 µM)
- MIC (N. gonorrhoeae WHO M): 1 to 2 µg/mL (≈ 1.69 to 3.38 µM)
- MIC (N. gonorrhoeae WHO Q): 4 to 8 µg/mL (≈ 6.77 to 13.5 µM)
- MIC (N. gonorrhoeae WHO L): 16 to 32 µg/mL (≈ 27.1 to 54.1 µM)
- MIC (E. coli AG100A): > 128 µg/mL
- MIC (N. gonorrhoeae CDC-0197): 4 to 8 µg/mL (≈ 6.77 to 13.5 µM)
- MIC (N. gonorrhoeae MS11): 4 to 8 µg/mL (≈ 6.77 to 13.5 µM)
- MIC (E. coli ATCC 25922): > 128 µg/mL
- MIC (K. pneumoniae SI-117): > 128 µg/mL
- MIC (E. coli D22): 32 to 64 µg/mL (≈ 54.1 to 108 µM)

Compound: O=C(O)c1cccc2c1OB(O)[C@@H](NC(=O)[C@@H](NC(=O)c1ccn[nH]c1=O)c1ccc(P(=O)(O)O)cc1)C2 (single isomer, unassigned) [Example 177]
- MIC (K. pneumoniae UMM): > 128 µg/mL
- MIC (N. gonorrhoeae WHO K): 4 to 8 µg/mL (≈ 7.38 to 14.8 µM)
- MIC (P. aeruginosa ATCC 35151): 2 to 4 µg/mL (≈ 3.69 to 7.38 µM)
- MIC (A. baumannii ATCC 19606): > 128 µg/mL
- EC50 [1]: 10 to 50 µM
- MIC [2]: 1 to 2 µg/mL (≈ 1.84 to 3.69 µM)
- MIC (N. gonorrhoeae WHO Z): 4 to 8 µg/mL (≈ 7.38 to 14.8 µM)
- MIC (N. gonorrhoeae WHO M): < 1 µg/mL
- MIC (N. gonorrhoeae WHO Q): 4 to 8 µg/mL (≈ 7.38 to 14.8 µM)
- MIC (N. gonorrhoeae WHO L): 4 to 8 µg/mL (≈ 7.38 to 14.8 µM)
- MIC (E. coli AG100A): > 128 µg/mL
- MIC (N. gonorrhoeae CDC-0197): 1 to 2 µg/mL (≈ 1.84 to 3.69 µM)
- MIC (N. gonorrhoeae MS11): 1 to 2 µg/mL (≈ 1.84 to 3.69 µM)
- MIC (E. coli ATCC 25922): > 128 µg/mL
- MIC (K. pneumoniae SI-117): > 128 µg/mL
- MIC (E. coli D22): 32 to 64 µg/mL (≈ 59 to 118 µM)

Compound: O=C(O)c1cccc2c1OB(O)[C@@H](NC(=O)[C@H](NC(=O)[C@@H]1CCCN1)c1ccc(P(=O)(O)O)cc1)C2 [Example 173, (R)-2-hydroxy-3-((R)-2-(4-phosphonophenyl)-2-((S)-pyrrolidine-2-carboxamido)acetamido)-3,4-dihydro-2H-benzo[e][1,2]oxaborinine-8-carboxylic acid]
- MIC (K. pneumoniae UMM): 32 to 64 µg/mL (≈ 61.9 to 124 µM)
- MIC (N. gonorrhoeae WHO K): 16 to 32 µg/mL (≈ 30.9 to 61.9 µM)
- MIC (P. aeruginosa ATCC 35151): 8 to 16 µg/mL (≈ 15.5 to 30.9 µM)
- MIC (A. baumannii ATCC 19606): > 128 µg/mL
- EC50 [1]: 50 to 250 µM
- MIC [2]: 16 to 32 µg/mL (≈ 30.9 to 61.9 µM)
- MIC (N. gonorrhoeae WHO Z): 16 to 32 µg/mL (≈ 30.9 to 61.9 µM)
- MIC (N. gonorrhoeae WHO M): 4 to 8 µg/mL (≈ 7.73 to 15.5 µM)
- MIC (N. gonorrhoeae WHO Q): 16 to 32 µg/mL (≈ 30.9 to 61.9 µM)
- MIC (N. gonorrhoeae WHO L): 16 to 32 µg/mL (≈ 30.9 to 61.9 µM)
- MIC (E. coli AG100A): 32 to 64 µg/mL (≈ 61.9 to 124 µM)
- MIC (N. gonorrhoeae CDC-0197): 16 to 32 µg/mL (≈ 30.9 to 61.9 µM)
- MIC (N. gonorrhoeae MS11): 16 to 32 µg/mL (≈ 30.9 to 61.9 µM)
- MIC (E. coli ATCC 25922): > 128 µg/mL
- MIC (K. pneumoniae SI-117): 32 to 64 µg/mL (≈ 61.9 to 124 µM)
- MIC (E. coli D22): 32 to 64 µg/mL (≈ 61.9 to 124 µM)

Compound: CS(=O)(=O)N1CCN(C(=O)N[C@@H](C(=O)N[C@H]2Cc3ccc(F)c(C(=O)O)c3OB2O)c2ccc(P(=O)(O)O)c(F)c2)C1=O (single isomer, unassigned) [Example 19]
- MIC (K. pneumoniae UMM): > 128 µg/mL
- MIC (N. gonorrhoeae WHO K): < 1 µg/mL
- MIC (P. aeruginosa ATCC 35151): 2 to 4 µg/mL (≈ 3.09 to 6.19 µM)
- MIC (A. baumannii ATCC 19606): > 128 µg/mL
- EC50 [1]: < 10 µM
- MIC [2]: < 1 µg/mL
- MIC (N. gonorrhoeae WHO Z): < 1 µg/mL
- MIC (N. gonorrhoeae WHO M): < 1 µg/mL
- MIC (N. gonorrhoeae WHO Q): < 1 µg/mL
- MIC (N. gonorrhoeae WHO L): < 1 µg/mL
- MIC (E. coli AG100A): 32 to 64 µg/mL (≈ 49.5 to 99 µM)
- MIC (N. gonorrhoeae CDC-0197): < 1 µg/mL
- MIC (N. gonorrhoeae MS11): < 1 µg/mL
- MIC (E. coli ATCC 25922): > 128 µg/mL
- MIC (K. pneumoniae SI-117): > 128 µg/mL
- MIC (E. coli D22): 8 to 16 µg/mL (≈ 12.4 to 24.8 µM)
